According to patent publication US11339169B2, “P2X3 and/or P2X2/3 compounds and methods” (Asana BioSciences, LLC, priority 2016, dated 2022):
“And” between values parts separate entries of the source, which are not always exact repeats. Identical values can stand only once.

Experiments:
hP2X2/3 = target: T1, hP2X2/3 (Homo sapiens, UniProt P56373+Q9UBL9); assay: FLIPR intracellular calcium assay, hP2X2/3; assay type: cell-based; conditions: human P2X2/3-TRex293 cells, agonist at EC75
T1 construct: host or cells: TRex293 (hP2X2/3-TRex293), doxycycline-induced
T1 sequence (P56373 1-397): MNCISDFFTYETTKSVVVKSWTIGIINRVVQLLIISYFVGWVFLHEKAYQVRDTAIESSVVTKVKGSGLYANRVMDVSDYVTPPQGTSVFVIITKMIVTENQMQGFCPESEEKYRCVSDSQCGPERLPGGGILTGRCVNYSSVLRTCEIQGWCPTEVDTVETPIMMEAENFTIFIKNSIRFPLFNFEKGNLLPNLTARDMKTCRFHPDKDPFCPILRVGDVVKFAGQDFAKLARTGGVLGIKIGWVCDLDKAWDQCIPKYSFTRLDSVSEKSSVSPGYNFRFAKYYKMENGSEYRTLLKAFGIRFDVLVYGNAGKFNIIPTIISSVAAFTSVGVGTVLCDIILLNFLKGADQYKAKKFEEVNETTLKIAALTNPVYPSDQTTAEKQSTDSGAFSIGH
T1 sequence (Q9UBL9 1-471): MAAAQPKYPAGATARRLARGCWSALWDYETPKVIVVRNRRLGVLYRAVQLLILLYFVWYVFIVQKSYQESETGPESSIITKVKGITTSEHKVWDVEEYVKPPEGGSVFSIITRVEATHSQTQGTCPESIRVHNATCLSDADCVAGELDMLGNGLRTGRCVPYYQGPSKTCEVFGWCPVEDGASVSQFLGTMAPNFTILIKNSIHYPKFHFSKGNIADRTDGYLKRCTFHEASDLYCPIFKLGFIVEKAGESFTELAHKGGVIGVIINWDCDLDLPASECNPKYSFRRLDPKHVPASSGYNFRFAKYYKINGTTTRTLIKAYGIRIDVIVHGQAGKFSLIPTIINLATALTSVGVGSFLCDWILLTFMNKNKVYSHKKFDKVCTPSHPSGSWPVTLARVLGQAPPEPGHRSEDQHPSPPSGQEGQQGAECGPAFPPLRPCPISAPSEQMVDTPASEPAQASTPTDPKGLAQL
Excerpt: The FLIPR® assay utilizes cells which express human or rat P2X3 or P2X2/3 receptors. Recombinant cells expressing hP2X3 (Cat #6188) and hP2X2/3 (Cat #6179) were procured from Chantest Corp. Rat P2X2 (NCBI Accession No: U14414) was amplified by PCR from PC12 cDNA (a rat adrenal medulla cell line). The PCR product obtained containing the protein coding sequence of rat P2X2 was cloned into EcoRV-digested and dephosphorylated vector plRES-puro3 within the multiple cloning site (MCS). See, FIG. 1A.
(i) Intracellular Calcium Assay Protocol for Screening Compounds
Cryo-vial containing 6×10^6 cells (human P2X3-HEK/human P2X2/3-TRex293/rat P2X2/3-TRex293/rat P2X3 TRex-CHO) was thawed in a 37° C. water bath. Cells were suspended in 20 mL of respective cell plating media (See annexure for composition) in a 50 mL centrifuge tube. The cell viability was checked with the help of Trypan Blue dye. Upon washing, cells were plated in a black 384-well clear bottomed, sterile poly-D-lysine coated plate such that, each well contained 10,000 cells (15,000/well for hP2X3) in 30 μL cell plating media. The plate was incubated in a 5% CO2 incubator at 37° C. for 24 h.
The next day, prior to the assay, the cell plating media was removed from each well by decanting and gentle tapping. Thirty μL of FLIPR Calcium 4 dye solution was added to each well. The plate was incubated at 37° C. for 45 min (60 min for hP2X3). The plate was next equilibrated at room temperature for 15 minutes before placing it in a 384 well FLIPR for the assay.
Compounds were dissolved in DMSO and serially diluted following 11 point half log (3.16 fold) dilution with a starting concentration of 2 mM. Dilutions were mixed with assay buffer just before performing the assay.
Compounds were added to the respective wells of the assay-ready cell plate with the help of the FLIPR and fluorescence readings were captured for 5 min to observe any possible agonistic property of the compounds. The plate was then incubated at room temperature for 15 min. The cells were stimulated with respective agonist EC75 concentration and the fluorescence readings were captured for another 5 min by FLIPR. The difference in fluorescence readings in presence of the compounds were compared with that of the control wells (wells having no compound) to calculate the inhibitory potency of the compounds. The IC50 values of the compounds were determined using the Graph pad Prism software.
(ii) Cell Plating Media for hP2X3-HEK and hP2X2/3-TRex293 Cells • DMEM/F12 (1:1) HAM media (Invitrogen; Cat #11039) • 1×NEAA (Invitrogen; Cat #11140) • 25 mM HEPES (Invitrogen; Cat #15630) • 1 mM sodium pyruvate (Invitrogen; Cat #11360) • 10% tetracycline negative FBS (PAA; Cat #A15-209) • 1 μg/mL doxycycline (Clontech; Cat #63131) [for hP2X2/3-TRex293 cells only]
(v) Assay Buffer Composition • HBSS (Invitrogen Cat #14025) • 20 mM HEPES (Invitrogen Cat #15630) • 0.01% F127 (Sigma Cat #P2443) • 1.8 mM CaCl2 (Sigma Cat #C5080) • pH adjusted to 7.4
(vi) Dye Solution Composition • 1× FLIPR Calcium 4 dye in assay buffer (Molecular devices Cat #R8141) • 1.8 mM Probenecid (Sigma Cat #P8761) • pH adjusted to 7.4

hP2X3 = target: T2, hP2X3 (Homo sapiens, UniProt P56373); assay: FLIPR intracellular calcium assay, hP2X3; assay type: cell-based; conditions: human P2X3-HEK cells, agonist at EC75
T2 construct: host or cells: HEK (hP2X3-HEK)
T2 sequence (P56373 1-397): T1 sequence (P56373 1-397)
Outline: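 HEK (hP2X3) or tetracycline-inducible TRex293 (hP2X2/3) cells loaded with Calcium 4 dye, then given 11-point half-log compound dilutions for 15 min at room temperature in HBSS/HEPES, pH 7.4, with 1.8 mM CaCl2. Cells challenged with agonist at EC75; IC50 derived from fluorescence inhibition versus no-compound wells.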

| IC50 (hP2X2/3) | IC50 (hP2X3) | Compound |
| --- | --- | --- |
| 100 to 1000 nM | 1 to 100 nM | CC(=O)N1CCN(c2nc(N[C@@H](c3cnc4ccccc4c3)C3CC3)c3c(cnn3C(C)C(C)C)n2)CC1 (stereo partly shown) [Example 62] |
| 1000 to 10000 nM | 1 to 100 nM | CC(=O)N1CCN(c2nc(N[C@H](C)c3cnc4ccccc4c3)c3c(cnn3C3CCC3)n2)CC1 [Example 48] |
| 1 to 100 nM | 1 to 100 nM | CC(=O)N1CCN(c2nc(N[C@H](C)c3cnc4ccccc4c3)c3c(cnn3C(C3CC3)C3CC3)n2)CC1 [Example 34] |
| 100 to 1000 nM | 1 to 100 nM | CCC(C)n1ncc2nc(-c3cnn(CC)c3)nc(N[C@@H](c3cnc4ccccc4c3)C3CC3)c21 (stereo partly shown) [Example 115] |
| 1000 to 10000 nM | 100 to 1000 nM | CCC(C)n1cc2nc(N3CCN(C(C)=O)CC3)nc(NC(C)(C)Cc3ccc(Cl)cc3)c2n1 (stereo not shown) [Example 6] |
| 1000 to 10000 nM | 1 to 100 nM and 100 to 1000 nM | CCC(C)n1ncc2nc(-n3cncn3)nc(N[C@@H](c3cnc4ccccc4c3)C3CC3)c21 (stereo partly shown) [Example 77] |
| 1000 to 10000 nM | 1 to 100 nM | CCC(C)n1ncc2nc(N3CCN(C(C)=O)CC3)nc(N[C@H](CC)c3cnc4ccccc4c3)c21 (stereo partly shown) [Example 43] |
| 1000 to 10000 nM | 1 to 100 nM | C[C@@H](Nc1nc(N2CCN(C)C(=O)C2)nc2cnn(C3CCC3)c12)c1cnc2ccccc2c1 [Example 49] |
| 100 to 1000 nM | 1 to 100 nM | CC(C)n1ncc2nc(N3CCN(C(N)=O)CC3)nc(N[C@@H](c3cnc4ccccc4c3)C3CC3)c21 [Example 66] |
| 1 to 100 nM | 1 to 100 nM | CCC(CC)n1ncc2nc(N3CCN(C(C)=O)CC3)nc(N[C@H](C)c3cnc4ccccc4c3)c21 [Example 22] |
| 1000 to 10000 nM | 1 to 100 nM | CCC(C)n1ncc2nc(N3CCN(C(C)=O)CC3)nc(NC(C)c3ccc(-c4ccccc4)nc3)c21 (stereo not shown) [Example 52] |
| 1 to 100 nM | 1 to 100 nM | CCC(C)n1ncc2nc(N3CCN(C(N)=NC#N)CC3)nc(N[C@@H](c3cnc4ccccc4c3)C3CC3)c21 (stereo partly drawn) [Example 110, 4-(1-sec-butyl-7-{[(R)-cyclopropyl(quinolin-3-yl)methyl]amino}-1H-pyrazolo[4,3-d]pyrimidin-5-yl)-N′-cyanopiperazine-1-carboximidamide] |
| 1 to 100 nM | 1 to 100 nM | CCC(C)n1ncc2nc(N3CCN(/C(N)=N\C#N)CC3)nc(N[C@H](C)c3cnc4ccccc4c3)c21 (stereo partly drawn) [Example 111, 4-(1-sec-butyl-7-{[(R)-methyl(quinolin-3-yl)methyl]amino}-1H-pyrazolo[4,3-d]pyrimidin-5-yl)-N′-cyanopiperazine-1-carboximidamide] |
| 1000 to 10000 nM | 100 to 1000 nM | CCC(C)n1ncc2nc(N3CCOC(C#N)C3)nc(N[C@@H](c3cnc4ccccc4c3)C3CC3)c21 (stereo partly shown) [Example 76] |
| 1000 to 10000 nM | 1 to 100 nM | CCC(C)n1nc(C2CC2)c2nc(N3CCN(C(C)=O)CC3)nc(N[C@H](C)c3cnc4ccccc4c3)c21 (stereo partly drawn) [Example 93, 1-{4-[1-sec-Butyl-3-cyclopropyl-7-((R)-1-quinolin-3-yl-ethylamino)-1H-pyrazolo[4,3-d]pyrimidin-5-yl]-piperazin-1-yl}-ethanone] |
| 1000 to 10000 nM | 1 to 100 nM | CCC(C)n1ncc2nc(N3CCN(C(C)=O)CC3)nc(NC(c3ccc(-c4ccccc4)nc3)C3CC3)c21 (stereo not shown) [Example 58] |
| 1000 to 10000 nM and 100 to 1000 nM | 1 to 100 nM | CCC(C)n1ncc2nc(-c3cnn(CCF)c3)nc(N[C@H](C)c3cn4ccc(C)cc4n3)c21 (stereo partly shown) [Example 123] |
| 100 to 1000 nM | 1 to 100 nM | CCC(CC)n1ncc2nc(N3CCN(C(C)=O)CC3)nc(NC(C)c3ccc4oc(C5CC5)cc4c3)c21 (stereo not shown) [Example 55] |
| > 10000 nM | 1 to 100 nM | CC(=O)N1CCN(c2nc(N[C@H](C)c3cnc4ccccc4c3)c3nn(C(C)C)cc3n2)CC1 [Example 1, 1-{4-[2-Isopropyl-7-((R)-1-quinolin-3-yl-ethylamino)-2H-pyrazolo[4,3-d]pyrimidin-5-yl]-piperazin-1-yl}-ethanone] |
| 1 to 100 nM | 1 to 100 nM | CCC(C)n1ncc2nc(-c3cnn(CCF)c3)nc(N[C@@H](c3cnc4ccccc4c3)C3CC3)c21 (stereo partly shown) [Example 116] |
| 1000 to 10000 nM | 1 to 100 nM | CC(=O)N1CCN(c2nc(NC(C)(C)Cc3ccc(Cl)cc3)c3c(cnn3C(C)C)n2)CC1 [Example 13] |
| 1000 to 10000 nM | 1 to 100 nM | CC[C@H](C)n1ncc2nc(N3CCN(C(C)=O)CC3)nc(NC(COC)c3cnc4ccccc4c3)c21 (stereo partly shown) [Example 82] |
| 1000 to 10000 nM | 1 to 100 nM | CC(=O)N1CCN(c2nc(NC(C)c3cnc4ccccc4c3)c3nn(C(C)C)c(Br)c3n2)CC1 (stereo not shown) [Example 94] |
| 1000 to 10000 nM | 1 to 100 nM | CCC(C)n1ncc2nc(N3CCN(C(N)=O)CC3)nc(N[C@H](C)c3cn4ccc(C)cc4n3)c21 (stereo partly shown) [Example 84] |
| 1000 to 10000 nM | 1 to 100 nM | CC[C@H](C)n1ncc2nc(N3CCN(C(N)=O)CC3)nc(NC(c3ccc4c(cnn4CC)c3)C3CC3)c21 (stereo partly shown) [Example 80] |
| 1000 to 10000 nM | 1 to 100 nM | CCC(C)n1ncc2nc(-c3cnn(CCO)c3)nc(N[C@H](C)c3cnc4ccccc4c3)c21 (stereo partly drawn) [Example 113, 2-{4-[1-sec-Butyl-7-((R)-1-quinolin-3-yl-ethylamino)-1H-pyrazolo[4,3-d]pyrimidin-5-yl]-pyrazol-1-yl}-ethanol] |
| 1000 to 10000 nM | 1 to 100 nM | CCC(C)n1ncc2nc(N3CCN(S(N)(=O)=O)CC3)nc(N[C@@H](c3cnc4ccccc4c3)C3CC3)c21 (stereo partly drawn) [Example 108, 4-{1-sec-Butyl-7-[((R)-cyclopropyl-quinolin-3-yl-methyl)-amino]-1H-pyrazolo[4,3-d]pyrimidin-5-yl}-piperazine-1-sulfonic acid amide] |
| > 10000 nM | 1 to 100 nM | CC(=O)N1CCN(c2nc(N[C@H](C)c3cnc4ccccc4c3)c3c(n2)c(C#N)nn3C(C)C)CC1 [Example 104] |
| 1000 to 10000 nM | 1 to 100 nM | CC(=O)N1CCN(c2nc(N[C@H](C)c3cnc4ccccc4c3)c3nn(C(C)C)c(Cl)c3n2)CC1 [Example 99] |
